Peptide text beside a SMILES is read from it.
What was measured:
red blood cells (RBC) = experiment: Hemolytic assay; type: cell-based, human; settings: 1 hr at 37° C., normalized to Triton X-100
Experimental: Buffy coats were used as a source of red blood cells (RBC). Buffy coat (2 ml) was washed first in 10 ml of 150 mM NaCl and then washed twice in PBS (pH 7.4) by centrifugation for 5 min at 500 g. The cell pellets were resuspended in 10 ml of PBS as RBC stocks. The different peptides were diluted in PBS (100 μg/ml) and, in triplicates, the peptides were added to V-bottom 96-well plates at 10 μl/well. As controls, the same volumes of PBS or 20% (v/v) Triton X-100 were added. RBC were diluted 50 times in PBS and added to the plates at 190 μl/well. After incubation for 1 hr at 37° C., the plates were centrifuged for 5 min at 500 g. The supernatants (100 μl/well) were transferred to flat bottom plates and absorbance was measured at OD405. Data were normalized to the average OD405 readings obtained with 1% (v/v) Triton X-100 and presented as percentage hemolysis.

monocytes [1] = experiment: Monocyte activation, TNFα and IL-1β ELISA; type: cell-based, human
Experimental: (§1) Buffy coat fractions were obtained from healthy blood donors at the Singapore Health Sciences Authority, with Institutional ethics approval, and PBMC were isolated using Ficoll-Paque (GE Healthcare). To isolate monocytes, PBMC were re-suspended to 1×10^7 cells/ml in the RPMI medium contained 5% (v/v) BCS and incubated for 1 hr in T75 flasks (20 ml/flask). Monocytes that adhered were harvested. To culture macrophages and DC [Cao, W., et al., Blood 107: 2777-2785, (2006), incorporated herein by reference], monocytes were resuspended to 1×10^6 cells/ml and cultured in 6-well plates (2 ml/well). Macrophages were cultured by adding M-CSF to 20 ng/ml and DC were cultured with 20 ng/ml GM-CSF and 40 ng/ml IL-4. M-CSF, GM-CSF and IL-4 were obtained from R&D Systems (Mineapolis, Minn.). Cells were cultured for 6 days with half of the media being replenished every two days.
[…] Where TLR ligands were used to stimulate these cells, they were added to the media: LPS (500 ng/ml for DC and macrophages and 10 ng/ml for PMBC and monocytes, InvivoGen), flagellin (1 μg/ml, InvivoGen), lipoteichic acid (LTA, 10 μg/ml). Cell activation was determined by measuring TNFα and IL-1β in the culture media using ELISA kits (Invitrogen).

monocytes [2] = experiment: TLR-blocking antibody pre-incubation before stimulation, TNFα; type: cell-based, human; settings: monocytes pre-incubated with blocking antibody
Experimental: In some experiments, cells were pre-treated with the MyD88 inhibitor st-2825 (MedChemExpress) or the Caspase-1 inhibitor Ac-YVAD (InvivoGen) for 1 hr before stimulation with TLR ligands or the purified nuclear proteins. In some other experiments, cells were pre-incubated for 1 hr with anti-TLR2, TLR4 and TLR5 antibodies (InvivoGen) before stimulation. The optimal st-2825 and Ac-YVAD concentrations were determined based on both their effects on cell viability and LPS-induced cytokine production. Cell viability was determined using the CELLTITER 96® AQueous One Solution Cell Proliferation (MTS) Assay (Promega).
Therefore, TLR2 is clearly a sensing receptor for NCL as well as HMGB1. We then further analyzed the contribution of TLR2, TLR4 and TLR5 to NCL and HMGB1 recognition in their natural cellular contexts. Monocytes were pre-incubated with antibodies that were known to block each of these TLRs and then stimulated with the respective microbial ligands i.e. lipoteichoic acid (LTA), LPS and flagellin (FIG. 3E). […] NCL is a 710-amino acid protein and it is interesting to identify the specific NCL region that activates TLR2.

TLR4/CD14/MD2 = biological target: T1, TLR4/CD14/MD2 (Homo sapiens, UniProt O00206); experiment: TLR and NF-κB-luciferase assay in 293T cells, TLR4/CD14/MD2; type: cell-based; settings: on top of high TLR4 autoactivation
T1 construct: expressed in transfected cells; host or cells: human embryonic kidney 293T cells
T1 sequence (O00206 24-839): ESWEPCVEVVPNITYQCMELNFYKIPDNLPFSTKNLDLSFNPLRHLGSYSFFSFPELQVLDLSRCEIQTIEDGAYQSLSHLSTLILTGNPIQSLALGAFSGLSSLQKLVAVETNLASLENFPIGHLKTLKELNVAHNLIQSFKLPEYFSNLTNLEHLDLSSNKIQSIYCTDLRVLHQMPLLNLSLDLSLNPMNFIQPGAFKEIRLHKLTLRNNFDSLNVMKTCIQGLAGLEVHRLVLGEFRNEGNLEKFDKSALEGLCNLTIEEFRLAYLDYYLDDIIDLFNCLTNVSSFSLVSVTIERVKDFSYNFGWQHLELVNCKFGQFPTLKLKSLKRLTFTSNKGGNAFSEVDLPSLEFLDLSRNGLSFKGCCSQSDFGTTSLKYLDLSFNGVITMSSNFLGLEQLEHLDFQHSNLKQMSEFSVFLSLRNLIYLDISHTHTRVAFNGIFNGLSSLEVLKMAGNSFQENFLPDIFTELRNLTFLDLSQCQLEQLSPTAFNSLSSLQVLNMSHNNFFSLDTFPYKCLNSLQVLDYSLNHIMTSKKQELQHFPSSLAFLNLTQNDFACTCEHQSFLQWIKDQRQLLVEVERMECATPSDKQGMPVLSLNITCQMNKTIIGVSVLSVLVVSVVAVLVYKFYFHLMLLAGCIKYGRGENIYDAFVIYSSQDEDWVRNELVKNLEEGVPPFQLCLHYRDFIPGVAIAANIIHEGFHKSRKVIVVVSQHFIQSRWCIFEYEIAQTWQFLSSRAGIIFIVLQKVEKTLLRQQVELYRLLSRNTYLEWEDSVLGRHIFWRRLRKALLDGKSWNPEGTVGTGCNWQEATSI
T1 sequence (Q9Y6Y9 19-160 partner): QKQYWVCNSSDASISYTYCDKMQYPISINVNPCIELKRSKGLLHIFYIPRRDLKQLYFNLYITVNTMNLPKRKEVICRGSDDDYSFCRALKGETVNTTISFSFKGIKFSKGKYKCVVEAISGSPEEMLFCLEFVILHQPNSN
Experimental: (§2) TLR-mediated NF-κB activation was determined using a Dual Luciferase Reporter Assay (Promega), in which two luciferase reporter plasmids were used. One plasmid expresses the firefly luciferase under the regulation of inducible NF-κB promoter and the other plasmid expresses the Renilla luciferase under a constitutively active CMV promoter [Zhang, H., et al., FEBS Lett 532: 171-176 (2002)]. Besides these luciferase vectors, cells were co-transfected with vectors coding for human TLRs or, in the case of TLR4, co-transfected with CD14 and MD2 [according to Zhang, H., et al., J. FEBS Lett 532: 171-176 (2002), incorporated herein by reference]. Transfection was performed using the TurboFect Transfection Reagent (Thermo Fisher Scientific). After 24 hr, cells were harvested and cultured for 24 hr in 96-well plates coated with the purified proteins or, as controls, cultured in blank plates but stimulated with TLR ligands. Cells were lysed to measure both firefly and Renilla luciferase activities and, in each sample, the firefly activity was normalized to the Renilla luciferase activity and expressed as relative NF-κB activation. […]

PBMC [3] = experiment: PBMC activation, TNFα and IL-1β ELISA; type: cell-based, human; settings: protein coated on plates, 24 hr, ELISA
Experimental: as §1
(§3) Purified proteins in PBS (30 μg/ml) were coated in triplicates in 96-well plates (50 μl/well) for 12 hr and PBMC (3×10^6 cells/ml), monocytes (1×10^6 cells/ml), macrophages (0.5×10^6 cells/ml) or DC (0.5×10^6 cells/ml) were re-suspended in macrophage serum-free medium containing penicillin and streptomycin and cultured for 24 hr in these plates at 100 μl/well. Where TLR ligands were used to stimulate these cells, they were added to the media: LPS (500 ng/ml for DC and macrophages and 10 ng/ml for PMBC and monocytes, InvivoGen), flagellin (1 μg/ml, InvivoGen), lipoteichic acid (LTA, 10 μg/ml). Cell activation was determined by measuring TNFα and IL-1β in the culture media using ELISA kits (Invitrogen).

PBMC [4] = experiment: PBMC activation, TNFα and IL-1β ELISA; type: cell-based, human; settings: 2.5, 5.0, 10, 14, 18 and 24 hr
TLR2 [5] = biological target: T2, TLR2 (Homo sapiens, UniProt O60603); experiment: TLR and NF-κB-luciferase assay in 293T cells, TLR2/TLR1/TLR6/TLR10; type: cell-based; parameters: expressed in transfected cells; host or cells: human embryonic kidney 293T cells
Experimental: TLR-mediated NF-κB activation was determined using a Dual Luciferase Reporter Assay (Promega), in which two luciferase reporter plasmids were used. […] Transfection was performed using the TurboFect Transfection Reagent (Thermo Fisher Scientific). After 24 hr, cells were harvested and cultured for 24 hr in 96-well plates coated with the purified proteins or, as controls, cultured in blank plates but stimulated with TLR ligands. Cells were lysed to measure both firefly and Renilla luciferase activities and, in each sample, the firefly activity was normalized to the Renilla luciferase activity and expressed as relative NF-κB activation.
TLRs and, where it required, co-receptors were co-transfected in a total of 4 combinations, i.e. TLR2/1/6/10, TLR4/CD14/MD2, TLR5, or TLR3/7/8/9. Two luciferase expression vectors were used: one expresses the firefly luciferase under 5 repeats of the NF-κB gene promoter and the other expresses the Renilla luciferase under the constitutively active CMV promoter (FIG. 3A).
Target sequence in this assay (O60603 21-784): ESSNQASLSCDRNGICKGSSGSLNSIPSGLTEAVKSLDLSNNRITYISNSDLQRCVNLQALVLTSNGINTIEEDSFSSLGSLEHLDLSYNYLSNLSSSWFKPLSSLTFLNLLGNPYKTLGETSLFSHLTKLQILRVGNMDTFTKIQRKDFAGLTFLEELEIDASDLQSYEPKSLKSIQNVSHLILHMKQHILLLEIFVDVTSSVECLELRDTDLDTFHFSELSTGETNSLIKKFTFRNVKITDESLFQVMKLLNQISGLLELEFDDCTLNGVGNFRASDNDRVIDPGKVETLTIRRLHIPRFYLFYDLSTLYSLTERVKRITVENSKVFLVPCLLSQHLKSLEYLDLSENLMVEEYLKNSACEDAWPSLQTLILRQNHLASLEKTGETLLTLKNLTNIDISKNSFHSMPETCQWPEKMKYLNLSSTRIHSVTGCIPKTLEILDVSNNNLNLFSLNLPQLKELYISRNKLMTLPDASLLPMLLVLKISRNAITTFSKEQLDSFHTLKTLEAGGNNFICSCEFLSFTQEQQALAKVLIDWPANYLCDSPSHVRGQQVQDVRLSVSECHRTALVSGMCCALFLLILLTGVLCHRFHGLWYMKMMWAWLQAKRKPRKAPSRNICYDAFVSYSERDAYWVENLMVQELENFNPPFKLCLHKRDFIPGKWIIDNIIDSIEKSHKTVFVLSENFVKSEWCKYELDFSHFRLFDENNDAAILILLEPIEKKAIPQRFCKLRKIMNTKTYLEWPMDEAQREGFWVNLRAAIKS

TLR5 = biological target: T3, TLR5 (Homo sapiens, UniProt O60602); experiment: TLR and NF-κB-luciferase assay in 293T cells, TLR5; type: cell-based; settings: protein-coated plates
T3 construct: expressed in transfected cells; host or cells: human embryonic kidney 293T cells
T3 sequence (O60602 21-858): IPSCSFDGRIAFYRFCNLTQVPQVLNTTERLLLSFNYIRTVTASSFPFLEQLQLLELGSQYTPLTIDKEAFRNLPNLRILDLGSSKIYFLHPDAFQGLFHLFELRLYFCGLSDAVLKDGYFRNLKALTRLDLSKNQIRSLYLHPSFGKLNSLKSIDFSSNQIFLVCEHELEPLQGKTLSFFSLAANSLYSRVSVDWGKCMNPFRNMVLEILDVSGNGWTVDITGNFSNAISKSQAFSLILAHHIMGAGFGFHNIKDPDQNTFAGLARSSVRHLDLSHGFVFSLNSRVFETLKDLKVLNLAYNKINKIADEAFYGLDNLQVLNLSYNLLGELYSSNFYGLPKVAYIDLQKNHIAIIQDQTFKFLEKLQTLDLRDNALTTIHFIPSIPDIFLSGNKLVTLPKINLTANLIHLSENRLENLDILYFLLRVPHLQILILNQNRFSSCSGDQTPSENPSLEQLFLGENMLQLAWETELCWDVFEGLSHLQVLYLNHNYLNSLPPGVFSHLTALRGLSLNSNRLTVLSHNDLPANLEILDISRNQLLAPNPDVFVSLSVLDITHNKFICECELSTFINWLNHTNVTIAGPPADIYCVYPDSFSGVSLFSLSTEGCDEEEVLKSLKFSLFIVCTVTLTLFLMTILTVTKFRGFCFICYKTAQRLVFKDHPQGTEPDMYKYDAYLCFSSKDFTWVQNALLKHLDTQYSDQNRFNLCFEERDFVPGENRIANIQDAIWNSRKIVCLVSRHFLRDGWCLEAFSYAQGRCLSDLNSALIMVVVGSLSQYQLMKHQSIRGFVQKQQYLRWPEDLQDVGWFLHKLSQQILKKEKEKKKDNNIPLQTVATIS
Experimental: as §2

[6] = test system: dendritic cells (DC) and macrophages; experiment: DC and macrophage activation, cytokine ELISA; type: cell-based, human; settings: protein coated on plates
Experimental: as §1
as §3, with “Where TLR ligands were used to stimulate these cells, they were added to the media: LPS (500 ng/ml for DC and macrophages and 10 ng/ml for PMBC and monocytes, InvivoGen), flagellin (1 μg/ml, InvivoGen), lipoteichic acid (LTA, 10 μg/ml).” left out

TLR2 [7] = biological target: T2, TLR2; experiment: TLR2 binding assay (ELISA plate); parameters: purchased R&D Systems; settings: TLR2 coated 2 μg/ml
Target sequence in this assay (O60603 21-590 limits assumed): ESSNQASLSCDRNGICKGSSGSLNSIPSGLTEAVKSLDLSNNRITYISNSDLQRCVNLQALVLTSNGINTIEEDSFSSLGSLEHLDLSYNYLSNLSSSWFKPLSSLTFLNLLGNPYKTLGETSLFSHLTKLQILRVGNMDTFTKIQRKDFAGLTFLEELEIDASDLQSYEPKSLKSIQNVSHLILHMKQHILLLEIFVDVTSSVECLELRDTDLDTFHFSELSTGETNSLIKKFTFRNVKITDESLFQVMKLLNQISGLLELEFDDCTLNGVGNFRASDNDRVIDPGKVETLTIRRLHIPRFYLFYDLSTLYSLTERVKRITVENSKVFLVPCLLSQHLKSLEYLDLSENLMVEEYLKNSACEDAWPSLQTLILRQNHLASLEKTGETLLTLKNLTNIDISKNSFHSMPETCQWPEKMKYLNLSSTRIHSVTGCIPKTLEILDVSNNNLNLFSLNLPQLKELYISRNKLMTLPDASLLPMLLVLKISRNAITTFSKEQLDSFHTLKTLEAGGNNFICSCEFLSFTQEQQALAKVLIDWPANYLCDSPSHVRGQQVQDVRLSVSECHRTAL

[8] = test system: dendritic cells (DC) and macrophages; settings: Wu et al. 2021; cited from earlier work
PBMC [9] = experiment: Peptide binding to and penetration of PBMC, flow cytometry; type: cell-based, human; settings: for cell surface binding of peptide at 37° C.: PBMC gated for monocytes, B cells, T cells; for cell surface binding of peptide at 37° C. / intracellular peptide at 37° C.: 1 hr; for intracellular peptide at 4° C.: B cells and T cells, permeabilized; for intracellular peptide at 37° C.: permeabilized cells
Experimental: PBMC re-suspended in 100 μl macrophage serum free media (3×10^6/ml) were incubated with different peptides (200 μg/ml). PBMC (100 μl) were incubated with the peptides for 1 hr at 37° C. or 4° C. Cells were washed twice in 2% FBS/PBS and incubated with streptavidin-AF488 and Zombie (NIR) Fixable viability stain-APC-Cy7 for 30 min at 4° C. Cells were then fixed with 1% PFA for 30 min at room temperature and analysed using the Fortessa analyser (BD). In some experiments, PBMC were, after incubation with peptides, incubated with Zombie (NIR) Fixable viability stain (APC-Cy7) for 30 min at 4° C. Cells were then fixed and permeabilized with BD CYTOFIX/CYTOPERM™ Kit for 20 min at 4° C., and then incubated with streptavidin-AF488 for 30 min at 4° C. In some experiments, PBMC were, after incubation with the peptides, stained with fluorescent mouse antibodies specific for monocytes (CD14/BV711), T cells (CD3/PerCP-Cy5-5) and B cells (CD19/Pacific blue). Cells were then stained with Zombie (NIR) Fixable viability stain-APC-Cy7 and streptavin-AF488, with or without membrane permeabilization. In these experiments, monocytes, T cells and B cells were separately gated to detect surface peptide binding and intracellular peptide penetration.

Which haemolysis (red blood cells (RBC)) does the source give for `CC[C@H](C)[C@H](NC(=O)[C@H](CCCNC(=N)N)NC(=O)[C@H](CCCNC(=N)N)NC(=O)[C@H](CCCNC(=N)N)NC(=O)[C@H](CC(C)C)NC(=O)[C@@H](NC(=O)[C@@H](NC(=O)[C@H](CC(C)C)NC(=O)[C@@H](N)CC(C)C)[C@@H](C)CC)[C@@H](C)CC)C(=O)N[C@@H](CCCNC(=N)N)C(=O)N[C@@H](CCCCN)C(=O)N[C@@H](CCC(N)=O)C(=O)N[C@@H](C)C(=O)N[C@@H](Cc1c[nH]cn1)C(=O)N[C@@H](C)C(=O)N[C@@H](Cc1c[nH]cn1)C(=O)N[C@@H](CO)C(=O)N[C@@H](CCCCN)C(=O)O` [CPP5, LLIILRRRIRKQAHAHSK] (H-LLIILRRRIRKQAHAHSK-OH) here?
The haemolysis was “clearly haemolytic”.

With “HMGB1: HMGB1 purified from T×NE as an alarmin control” as the compound, how does the “TNFα and IL-1β production from monocytes” value (monocytes [1]; protein coated on plates, 24 hr, ELISA) read?
Its value is “HMGB1 did”.

What about the “effect of TLR2 antibody on TNFα production induced by the protein” value (monocytes [2]) of the same compound?
The value was “significantly inhibited”.

What about the “effect of TLR4 antibody on TNFα production induced by the protein” value (monocytes [2]) of the same compound?
Its value is “significantly inhibited”.

And the “effect of TLR5 antibody on TNFα production induced by the protein” value (monocytes [2])?
Its value is “significantly inhibited”.

What about the “NF-κB activation via TLR4/CD14/MD2” value (TLR4/CD14/MD2) of the same compound?
Its value is “marginal but significant additional TLR4 activation”.

What about the “TNFα and IL-1β production from PBMC” value (PBMC [3]) of the same compound?
Its value is “HMGB1 did”.

And the “kinetics of IL-1β induction from PBMC” value (PBMC [4])?
Its value is “rapidly surged to plateau”.

And the “kinetics of TNFα induction from PBMC” value (PBMC [4])?
The value was “linear early increase but a noticeable late surge”.

And the “TLR2 response when expressed without TLR1/TLR6/TLR10 or co-expressed with TLR5” value (TLR2 [5])?
Its value is “not significantly affected”.

What about the “NF-κB activation via TLR2/TLR1/TLR6/TLR10 combination” value (TLR2 [5]; protein-coated plates, 24 hr) of the same compound?
Its value is “prominent activation”.

And the “NF-κB activation via TLR5” value (TLR5)?
Its value is “consistently activated TLR5”.

And the “cytokine production from dendritic cells (DC) and macrophages” value [6]?
Its value is “also induced cytokine production”.

Which “alarmin activity compared with NCL-P1” value (monocytes [1]; monocytes) does the source give for “GGFGGRGGGRGGRGGFGGRGRGGFGGRGGFRGGRGG (NCL-P2)” here?
The value was “stronger alarmin activity than NCL-P1”.

And the “cytokine induction, soluble versus coated (immobilized) form” value (monocytes [1]; monocytes, 24 hr)?
Its value is “induced more cytokines than immobilized peptides”.

And the “cytokines induced by plate-coated peptide compared with NCL-P1” value (monocytes [1]; monocytes, peptides coated on plates)?
The value was “induced more cytokines than NCL-P1”.

And the “TNFα induced relative to NCL-P1” value (monocytes [1]; monocytes, soluble peptide 40 μg/ml)?
The value was “approximately 10 fold”.

And the “TNFα induction from monocytes (7 NCL peptides)” value (monocytes [1]; peptides 50 or 200 μg/ml, 24 hr)?
The value was “induced TNFα”.

What about the “TNFα induction from monocytes at lower concentrations” value (monocytes [1]; soluble peptide 10 and 20 μg/ml) of the same compound?
Its value is “induced little TNFα”.

What about the “TNFα induction from monocytes at higher concentrations” value (monocytes [1]; soluble peptide 80 and 160 μg/ml) of the same compound?
Its value is “strongly induced TNFα production”.

What about the “concentration at which saturated TLR2 binding was reached” value (TLR2 [7]) of the same compound?
Its value is 3.2 µg/mL.

And the “peptide binding to coated TLR2” value (TLR2 [7]; biotin peptides at increasing concentrations)?
The value was “dose-dependent and saturable binding to TLR2”.

What about the “DC activation judged by TNFα induction” value [8] of the same compound?
Its value is “activate DC”.

And the “intracellular pool / cell penetration (CPP activity) in PBMC” value (PBMC [9]; 1 hr at 4° C., fixed/permeabilized, streptavidin-AF488)?
The value was “accumulate intracellular pools”.

What about the “cell surface binding of peptide at 37° C.” value (PBMC [9]) of the same compound?
Its value is “the majority of monocytes and smaller fractions of B and T cells”.

And the “cell surface binding of peptide at 37° C.” value (PBMC [9]; listed as P2)?
The value was “surface binding was only prominent on PBMC and monocytes”.

And the “intracellular peptide at 4° C.” value (PBMC [9]; monocytes)?
Its value is “similarly high intracellular pools of the peptide”.

And the “intracellular peptide at 4° C.” value (PBMC [9]; monocytes, listed as P2)?
Its value is “similarly high levels of intracellular P2 peptide irrespective of the temperature of incubation”.

What about the “surface-bound peptide at 4° C.” value (PBMC [9]; monocytes, compared with 37° C.) of the same compound?
Its value is “increased significantly”.

And the “intracellular peptide at 37° C.” value (PBMC [9])?
The value was “much higher level of the peptide was detected in all PBMC”.

And the “intracellular peptide at 37° C.” value (PBMC [9]; listed as P2)?
The value was “similarly high levels of intracellular P2 peptide irrespective of the temperature of incubation”.
